Experimental data as given in patent US11286266B2, “1-imidazothiadiazolo-2H-pyrrol-5-one derivatives” (UCB Biopharma SRL, priority 2018, dated 2022).
pKi: −log10 of the molar value. Where “and” joins values, the source holds several entries; their conditions need not be identical. Equal entries are not always repeated.

Biological target: T1, Human SV2A (Homo sapiens, UniProt Q7L0J3)
T1 construct: expressed in transfected cells; host or cells: human embryonic kidney (HEK) cells; membrane preparations
T1 sequence (Q7L0J3 whole entry): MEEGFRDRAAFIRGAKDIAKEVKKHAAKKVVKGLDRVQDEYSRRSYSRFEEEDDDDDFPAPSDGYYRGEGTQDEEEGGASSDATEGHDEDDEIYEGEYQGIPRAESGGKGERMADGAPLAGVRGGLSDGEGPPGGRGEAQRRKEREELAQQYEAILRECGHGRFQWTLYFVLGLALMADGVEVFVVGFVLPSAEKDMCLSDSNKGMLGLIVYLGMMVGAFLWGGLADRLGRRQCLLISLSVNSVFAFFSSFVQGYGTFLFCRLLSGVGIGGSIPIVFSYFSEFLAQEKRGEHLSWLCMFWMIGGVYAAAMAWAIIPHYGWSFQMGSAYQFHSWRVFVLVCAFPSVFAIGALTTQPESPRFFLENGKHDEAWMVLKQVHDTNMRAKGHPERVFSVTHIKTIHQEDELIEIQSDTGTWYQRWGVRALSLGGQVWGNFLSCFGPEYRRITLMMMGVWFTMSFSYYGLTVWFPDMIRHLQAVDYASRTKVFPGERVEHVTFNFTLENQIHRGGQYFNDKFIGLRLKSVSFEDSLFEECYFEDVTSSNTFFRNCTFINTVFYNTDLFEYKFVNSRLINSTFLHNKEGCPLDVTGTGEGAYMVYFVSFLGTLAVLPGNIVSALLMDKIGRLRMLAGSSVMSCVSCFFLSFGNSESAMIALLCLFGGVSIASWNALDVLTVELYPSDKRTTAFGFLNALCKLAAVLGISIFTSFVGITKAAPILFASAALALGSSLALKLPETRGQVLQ
Assay: Binding assay to SV2A (radioligand competition, HEK membranes)
Conditions: human SV2A in HEK membranes, 60 min at 37° C., pIC50 corrected to pKi by Cheng and Prusoff
Procedure: Human SV2A and SV2C proteins were expressed in human embryonic kidney (HEK) cells. HEK SV2A and HEK SV2C membrane preparations were prepared as described in Gillard et al (Eur. J. Pharmacol. 2006, 536, 102-108). To measure affinity of non-labelled compounds, competition experiments were performed as follow: Membranes expressing SV2 proteins (5 to 15 μg proteins per assay) were incubated for 60 min at 37° C. with either [^3H]-2-[4-(3-azidophenyl)-2-oxo-1-pyrrolidinyl]butanamide (5 nM) and/or [^3H]-4R-(2-chloro-2,2-difluoroethyl)-1-{[2-(methoxymethyl)-6-(trifluoromethyl)imidazo[2,1-b][1,3,4]thiadiazol-5-yl]methyl}pyrrolidin-2-one (25 nM) in 0.2 ml of a 50 mM Tris-HCl buffer (pH 7.4) containing 2 mM MgCl2, 0.1% dimethylsulfoxide and ten increasing concentrations of non-labelled test compound (0.1 nM to 10 μM). At the end of the incubation period, the membrane-bound radioligand was recovered by rapid filtration through GF/C glass fiber filters pre-soaked in 0.1% polyethyleneimine. Membranes were washed with at least 4 times the assay volume of ice-cold 50 mM Tris HCl buffer (pH 7.4). The filters were dried and the radioactivity determined by liquid scintillation. […] Measured affinity plC50 values were corrected to pKi according to Cheng and Prusoff (Biochem. Pharmacol. 1973, 22(23), 3099-3108).

Structure (SMILES) | pKi
COCc1nn2c(CN3CC(C4CC4(F)F)=CC3=O)c(C)nc2s1 (single isomer, unassigned) [Example 18-A, 1-[[2-(methoxymethyl)-6-methyl-imidazo[2,1-b][1,3,4]thiadiazol-5-yl]methyl]-3-[2,2-difluorocyclopropyl]-2H-pyrrol-5-one] | 7.50 to 8.00
COCc1nn2c(CN3CC(C4CC4(F)F)=CC3=O)c(C)nc2s1 (single isomer, unassigned) [Example 18-B, 1-[[2-(methoxymethyl)-6-methyl-imidazo[2,1-b][1,3,4]thiadiazol-5-yl]methyl]-3-[2,2-difluorocyclopropyl]-2H-pyrrol-5-one] | 6.50 to 7.50
COCc1nn2c(CN3CC(CC(F)(F)F)=CC3=O)c(C(F)(F)F)nc2s1 [Example 2, 1-[[2-(methoxymethyl)-6-(trifluoromethyl)imidazo[2,1-b][1,3,4]thiadiazol-5-yl]methyl]-3-(2,2,2-trifluoroethyl)-2H-pyrrol-5-one] | 7.50 to 8.00
COCc1nn2c(CN3CC(CC(F)(F)F)=CC3=O)c(Cl)nc2s1 [Example 5, 1-[[6-chloro-2-(methoxymethyl)imidazo[2,1-b][1,3,4]thiadiazol-5-yl]methyl]-3-(2,2,2-trifluoroethyl)-2H-pyrrol-5-one] | 7.50 to 8.00
COCc1nn2c(CN3CC(CC(F)(F)F)=CC3=O)c(C3(F)CC3)nc2s1 [Example 11, 1-[[6-(1-fluorocyclopropyl)-2-(methoxymethyl)imidazo[2,1-b][1,3,4]thiadiazol-5-yl]methyl]-3-(2,2,2-trifluoroethyl)-2H-pyrrol-5-one] | 7.50 to 8.00 and 8.00 to 8.50
COCc1nn2c(CN3CC(CCC(F)(F)F)=CC3=O)c(C(F)F)nc2s1 [Example 14, 1-[[6-(difluoromethyl)-2-(methoxymethyl)imidazo[2,1-b][1,3,4]thiadiazol-5-yl]methyl]-3-(3,3,3-trifluoropropyl)-2H-pyrrol-5-one] | 8.00 to 8.50
COCc1nn2c(CN3CC(CC(C)(F)F)=CC3=O)c(C(F)(F)F)nc2s1 [Example 15, 3-(2,2-difluoropropyl)-1-[[2-(methoxymethyl)-6-(trifluoromethyl)imidazo[2,1-b][1,3,4]thiadiazol-5-yl]methyl]-2H-pyrrol-5-one] | 8.00 to 8.50
COCc1nn2c(CN3CC(CC(C)(F)F)=CC3=O)c(C(F)F)nc2s1 [Example 16, 1-[[6-(difluoromethyl)-2-(methoxymethyl)imidazo[2,1-b][1,3,4]thiadiazol-5-yl]methyl]-3-(2,2-difluoropropyl)-2H-pyrrol-5-one] | 8.00 to 8.50
COCc1nn2c(CN3CC(CC(C)(F)F)=CC3=O)c(C)nc2s1 [Example 20, 3-(2,2-difluoropropyl)-1-[[2-(methoxymethyl)-6-methyl-imidazo[2,1-b][1,3,4]thiadiazol-5-yl]methyl]-2H-pyrrol-5-one] | 7.50 to 8.00
Cc1nc2sc(CO)nn2c1CN1CC(CCC(F)(F)F)=CC1=O [Example 21, 1-[[2-(hydroxymethyl)-6-methyl-imidazo[2,1-b][1,3,4]thiadiazol-5-yl]methyl]-3-(3,3,3-trifluoropropyl)-2H-pyrrol-5-one] | 6.50 to 7.50
O=C1C=C(CCC(F)(F)F)CN1Cc1c(C(F)F)nc2sc(CO)nn12 [Example 22, 1-[[6-(difluoromethyl)-2-(hydroxymethyl)imidazo[2,1-b][1,3,4]thiadiazol-5-yl]methyl]-3-(3,3,3-trifluoropropyl)-2H-pyrrol-5-one] | 6.50 to 7.50
O=C1C=C(CC(F)(F)F)CN1Cc1c(C(F)F)nc2sc(CO)nn12 [Example 23, 1-[[6-(difluoromethyl)-2-(hydroxymethyl)imidazo[2,1-b][1,3,4]thiadiazol-5-yl]methyl]-3-(2,2,2-trifluoroethyl)-2H-pyrrol-5-one] | 6.50 to 7.50

Other lines, results leading:

pKi | Structure (SMILES)
8.00 to 8.50 | COCc1nn2c(CN3CC(C4CC4(F)F)=CC3=O)c(C(F)(F)F)nc2s1 (single isomer, unassigned) [Example 17-A, 3-(2,2-difluorocyclopropyl)-1-[[2-(methoxymethyl)-6-(trifluoromethyl)imidazo[2,1-b][1,3,4]thiadiazol-5-yl]methyl]-2H-pyrrol-5-one]
8.00 to 8.50 | COCc1nn2c(CN3CC(C4CC4(F)F)=CC3=O)c(C(F)F)nc2s1 (single isomer, unassigned) [Example 19-A, 1-[[6-(difluoromethyl)-2-(methoxymethyl)imidazo[2,1-b][1,3,4]thiadiazol-5-yl]methyl]-3-[2,2-difluorocyclopropyl]-2H-pyrrol-5-one]
8.00 to 8.50 | CCCC1=CC(=O)N(Cc2c(C(F)(F)F)nc3sc(COC)nn23)C1 [Example 1, 1-[[2-(methoxymethyl)-6-(trifluoromethyl)imidazo[2,1-b][1,3,4]thiadiazol-5-yl]methyl]-3-propyl-2H-pyrrol-5-one]
8.00 to 8.50 | COCc1nn2c(CN3CC(CCC(F)(F)F)=CC3=O)c(C(F)(F)F)nc2s1 [Example 3, 1-[[2-(methoxymethyl)-6-(trifluoromethyl)imidazo[2,1-b][1,3,4]thiadiazol-5-yl]methyl]-3-(3,3,3-trifluoropropyl)-2H-pyrrol-5-one]
8.00 to 8.50 | CCCC1=CC(=O)N(Cc2c(C)nc3sc(COC)nn23)C1 [Example 4, 1-[[2-(methoxymethyl)-6-methyl-imidazo[2,1-b][1,3,4]thiadiazol-5-yl]methyl]-3-propyl-2H-pyrrol-5-one]
8.00 to 8.50 | CCCC1=CC(=O)N(Cc2c(Cl)nc3sc(COC)nn23)C1 [Example 6, 1-[[6-chloro-2-(methoxymethyl)imidazo[2,1-b][1,3,4]thiadiazol-5-yl]methyl]-3-propyl-2H-pyrrol-5-one]
8.00 to 8.50 | COCc1nn2c(CN3CC(CCC(F)(F)F)=CC3=O)c(Cl)nc2s1 [Example 7, 1-[[6-chloro-2-(methoxymethyl)imidazo[2,1-b][1,3,4]thiadiazol-5-yl]methyl]-3-(3,3,3-trifluoropropyl)-2H-pyrrol-5-one]
8.00 to 8.50 | CCCC1=CC(=O)N(Cc2c(C(F)F)nc3sc(COC)nn23)C1 [Example 8, 1-[[6-(difluoromethyl)-2-(methoxymethyl)imidazo[2,1-b][1,3,4]thiadiazol-5-yl]methyl]-3-propyl-2H-pyrrol-5-one]
8.00 to 8.50 | COCc1nn2c(CN3CC(CC(F)(F)F)=CC3=O)c(C)nc2s1 [Example 9, 1-[[2-(methoxymethyl)-6-methyl-imidazo[2,1-b][1,3,4]thiadiazol-5-yl]methyl]-3-(2,2,2-trifluoroethyl)-2H-pyrrol-5-one]
8.00 to 8.50 | COCc1nn2c(CN3CC(CC(F)(F)F)=CC3=O)c(C(F)F)nc2s1 [Example 10, 1-[[6-(difluoromethyl)-2-(methoxymethyl)imidazo[2,1-b][1,3,4]thiadiazol-5-yl]methyl]-3-(2,2,2-trifluoroethyl)-2H-pyrrol-5-one]
8.00 to 8.50 | COCc1nn2c(CN3CC(CC(F)(F)Cl)=CC3=O)c(C(F)(F)F)nc2s1 [Example 12, 3-(2-chloro-2,2-difluoro-ethyl)-1-[[2-(methoxymethyl)-6-(trifluoromethyl)imidazo[2,1-b][1,3,4]thiadiazol-5-yl]methyl]-2H-pyrrol-5-one]
8.00 to 8.50 | COCc1nn2c(CN3CC(CCC(F)(F)F)=CC3=O)c(C)nc2s1 [Example 13, 1-[[2-(methoxymethyl)-6-methyl-imidazo[2,1-b][1,3,4]thiadiazol-5-yl]methyl]-3-(3,3,3-trifluoropropyl)-2H-pyrrol-5-one]
